Patent publication US20080014247A1, “METAL-CONTAINING FORMULATIONS AND METHODS OF USE” (Nucryst Pharmaceuticals, priority 2006, published 2008)

Key:
Staphylococcus aureus = assay: MIC assay (microdilution); assay type: cell-based
[1] = test system: Staphylococcus epidermidis; assay: MIC assay (microdilution); assay type: cell-based
Streptococcus pyogenes = assay: MIC assay (microdilution); assay type: cell-based
Streptococcus pneumoniae = assay: MIC assay (microdilution); assay type: cell-based; settings: lactate solutions
Pseudomonas aeruginosa = assay: MIC assay (microdilution); assay type: cell-based
Burkholderia multivorans = assay: MIC assay (microdilution); assay type: cell-based
Burkholderia dolosa = assay: MIC assay (microdilution); assay type: cell-based
Citrobacter freundii = assay: MIC assay (microdilution); assay type: cell-based; settings: isolate NP410
Enterobacter cloacae = assay: MIC assay (microdilution); assay type: cell-based
Klebsiella pneumoniae = assay: MIC assay (microdilution); assay type: cell-based
Proteus mirabilis = assay: MIC assay (microdilution); assay type: cell-based; settings: isolate NP405
Serratia marcescens = assay: MIC assay (microdilution); assay type: cell-based
Escherichia coli = assay: MIC assay (microdilution); assay type: cell-based
Shigella flexneri = assay: MIC assay (microdilution); assay type: cell-based; settings: ATCC 12022
[2] = test system: Mycobacterium tuberculosis H37Ra (ATCC 25177); assay: microbe, parasite or virus in culture; assay type: cell-based
Staph. aureus = assay: Minimal bactericidal concentration (MBC) assay; assay type: cell-based, Staphylococcus aureus
Procedure: (§1) Minimal bactericidal concentration (MBC) assay—Overnight-grown MIC plates, prepared as described in Example 16, were evaluated to determine the MIC. Culture was then sampled from wells at and near the MIC using sterile inoculating loops, and transferred to fresh MHA plates to determine if viable bacteria remained. […] The MBC was determined as the well in the MIC plate which contained the lowest concentration of silver yielding no bacterial growth on the MHA plate.

Ps. aeruginosa = assay: Minimal bactericidal concentration (MBC) assay; assay type: cell-based, Pseudomonas aeruginosa
Procedure: as §1

Strep. pyogenes = assay: Minimal bactericidal concentration (MBC) assay; assay type: cell-based, Streptococcus pyogenes
Procedure: as §1

K. pneumoniae = assay: Minimal bactericidal concentration (MBC) assay; assay type: cell-based, Klebsiella pneumoniae
Procedure: as §1

Ser. marcescens = assay: Minimal bactericidal concentration (MBC) assay; assay type: cell-based, Serratia marcescens
Procedure: as §1

E. coli = assay: Minimal bactericidal concentration (MBC) assay; assay type: cell-based, Escherichia coli
Procedure: as §1

Prot. mirabilis = assay: Minimal bactericidal concentration (MBC) assay; assay type: cell-based, Proteus mirabilis; settings: isolate NP405
Procedure: as §1

C. freundii = assay: Minimal bactericidal concentration (MBC) assay; assay type: cell-based, Citrobacter freundii; settings: isolate NP410
Procedure: as §1

B. multivorans = assay: Minimal bactericidal concentration (MBC) assay; assay type: cell-based, Burkholderia multivorans
Procedure: as §1

B dolosa = assay: Minimal bactericidal concentration (MBC) assay; assay type: cell-based, Burkholderia dolosa
Procedure: as §1

Staph epidermidis = assay: Minimal bactericidal concentration (MBC) assay; assay type: cell-based, Staphylococcus epidermidis
Procedure: as §1

O=[N+]([O-])[O-].[Ag+] [AgNO3, silver nitrate]
11 µg/mL: MIC (Staphylococcus aureus; S. aureus (ATCC), lactate solutions) | MIC (Streptococcus pneumoniae; S. pneumo (clin 314))
10 parts silver per million: MBC (Strep. pyogenes; isolate NP303)
1 ppm: MIC (Shigella flexneri; formulation type Water/PVA)
3 parts silver per million: MIC (Staphylococcus aureus; ATCC 700699) | MIC ([1]; ATCC 12228) | MIC ([1]; isolate NP136) | MIC (Streptococcus pyogenes; isolate NP303) | MIC (Burkholderia multivorans; isolate B1) | MIC (Burkholderia multivorans; isolate B2) | MIC (Citrobacter freundii) | MIC (Klebsiella pneumoniae; isolate NP401) | MBC (Ps. aeruginosa; ATCC 27317) | MBC (Ps. aeruginosa; isolate NP201) | MBC (Ps. aeruginosa; isolate NP204) | MBC (K. pneumoniae; isolate NP401) | MBC (K. pneumoniae; isolate NP403, second entry) | MBC (C. freundii) | MBC (B. multivorans; isolate B1) | MBC (B. multivorans; isolate B2) | MBC (B. multivorans; isolate B4) | MBC (B dolosa; isolate A3) | MBC (Staph epidermidis; ATCC 12228) | MBC (Staph epidermidis; isolate NP136)
21 µg/mL: MIC (Streptococcus pneumoniae; S. pneumo (clin 315))
3 ppm: MIC (Pseudomonas aeruginosa; isolate NP212, formulation type Water/Lecithin) | MIC (Pseudomonas aeruginosa; isolate NP212, formulation type Water/PVA)
13 µg/mL: MIC (Enterobacter cloacae; aerobic +) | MIC (Serratia marcescens; aerobic − (anaerobic))
21 parts silver per million: MBC (Strep. pyogenes; isolate NP304) | MBC (Strep. pyogenes; isolate NP306)
1 parts silver per million: MIC (Pseudomonas aeruginosa; ATCC 9027) | MIC (Pseudomonas aeruginosa; isolate NP201) | MIC (Pseudomonas aeruginosa; isolate NP204) | MIC (Pseudomonas aeruginosa; isolate NP206) | MIC (Klebsiella pneumoniae; isolate NP406) | MIC (Escherichia coli; ATCC 43745) | MIC (Escherichia coli; isolate NP412) | MBC (Ps. aeruginosa; isolate NP206) | MBC (K. pneumoniae; isolate NP406) | MBC (E. coli; isolate NP412)
6 µg/mL: MIC (Serratia marcescens; aerobic +)
2 ppm: MIC (Pseudomonas aeruginosa; isolate NP212, formulation type Lactate) | MIC (Shigella flexneri; formulation type Lactate) | MIC (Shigella flexneri; formulation type Water/Lecithin)
5 µg/mL: MIC (Staphylococcus aureus; S. aureus (clin.), lactate solutions) | MIC (Streptococcus pyogenes; S. pyog (clin. 304), lactate solutions)
13 parts silver per million: MBC (Prot. mirabilis)
3 µg/mL: MIC ([1]; S. epiderm (ATCC), lactate solutions) | MIC (Streptococcus pyogenes; S. pyog (clin. 303), lactate solutions) | MIC (Pseudomonas aeruginosa; P. aerug (ATCC), lactate solutions) | MIC (Pseudomonas aeruginosa; P. aerug. (clin.), lactate solutions) | MIC (Klebsiella pneumoniae; aerobic +) | MIC (Klebsiella pneumoniae; aerobic − (anaerobic)) | MIC (Escherichia coli; E. coli (ATCC), lactate solutions)
2 parts silver per million: MIC (Pseudomonas aeruginosa; ATCC 27317) | MIC (Burkholderia multivorans; isolate B4) | MIC (Burkholderia dolosa; isolate A3) | MIC (Burkholderia dolosa; isolate A4) | MBC (B dolosa; isolate A4)
2.5 μg/ml silver: MIC [2]
11 parts silver per million: MIC (Serratia marcescens; isolate NP408, second entry) | MBC (Staph. aureus; isolate NP101) | MBC (Ser. marcescens; isolate NP408, second entry)
25 µg/mL: MIC (Enterobacter cloacae; aerobic − (anaerobic))
6 parts silver per million: MIC (Staphylococcus aureus; ATCC 6538) | MIC (Staphylococcus aureus; isolate NP101) | MIC (Staphylococcus aureus; isolate NP102) | MIC (Staphylococcus aureus; isolate NP103) | MIC (Streptococcus pyogenes; isolate NP304) | MIC (Streptococcus pyogenes; isolate NP306) | MIC (Klebsiella pneumoniae; isolate NP403) | MIC (Klebsiella pneumoniae; isolate NP403, second entry) | MIC (Proteus mirabilis) | MIC (Serratia marcescens; isolate NP402) | MIC (Serratia marcescens; isolate NP402, second entry) | MIC (Serratia marcescens; isolate NP408) | MBC (Staph. aureus; ATCC 6538) | MBC (Staph. aureus; ATCC 700699) | MBC (Staph. aureus; isolate NP102) | MBC (Staph. aureus; isolate NP103) | MBC (K. pneumoniae; isolate NP403) | MBC (Ser. marcescens; isolate NP402) | MBC (Ser. marcescens; isolate NP402, second entry) | MBC (Ser. marcescens; isolate NP408)
0.4 parts silver per million: MIC (Escherichia coli; ATCC 8739) | MBC (E. coli; ATCC 8739) | MBC (E. coli; ATCC 43745)
